Experimental data: ChEMBL document CHEMBL5465560, “Selectivity Literature for EUbOPEN Chemogenomic Library” (2024)
Values belong to the molecule of their own block, whether it stands above or below them.

How the values were obtained:
[1] = target: T1, Phosphorylase b kinase gamma catalytic chain, liver/testis isoform (Homo sapiens) (UniProt P15735); settings: at 10 µM
T1 sequence (whole entry): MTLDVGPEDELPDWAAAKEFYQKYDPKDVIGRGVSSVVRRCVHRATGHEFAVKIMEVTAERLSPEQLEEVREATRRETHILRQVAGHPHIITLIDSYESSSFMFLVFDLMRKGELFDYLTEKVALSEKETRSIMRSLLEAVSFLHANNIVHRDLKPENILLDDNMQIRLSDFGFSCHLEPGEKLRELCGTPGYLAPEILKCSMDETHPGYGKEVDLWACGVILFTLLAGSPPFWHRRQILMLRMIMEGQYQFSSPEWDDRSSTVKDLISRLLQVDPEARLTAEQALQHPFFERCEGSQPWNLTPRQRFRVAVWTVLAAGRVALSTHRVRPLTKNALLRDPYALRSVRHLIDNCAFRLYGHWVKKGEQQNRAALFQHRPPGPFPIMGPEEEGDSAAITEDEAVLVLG

[2] = target: Serine/threonine-protein kinase 38 (Homo sapiens) (UniProt Q15208); assay: Selectivity interaction (KinomeScan (DiscoverX)) EUB0001049a STK38; settings: at 1 µM
[3] = target: Serine/threonine-protein kinase Nek7 (Homo sapiens) (UniProt Q8TDX7); assay: Selectivity interaction (ActivX KiNativ screen (kinase selectivity in THP-1 cell lysates)) EUB0000639a NEK7; type: subcellular; settings: lysate, at 0.01 µM
Sequence of Serine/threonine-protein kinase Nek7 (Homo sapiens) (Q8TDX7 whole entry, looked up): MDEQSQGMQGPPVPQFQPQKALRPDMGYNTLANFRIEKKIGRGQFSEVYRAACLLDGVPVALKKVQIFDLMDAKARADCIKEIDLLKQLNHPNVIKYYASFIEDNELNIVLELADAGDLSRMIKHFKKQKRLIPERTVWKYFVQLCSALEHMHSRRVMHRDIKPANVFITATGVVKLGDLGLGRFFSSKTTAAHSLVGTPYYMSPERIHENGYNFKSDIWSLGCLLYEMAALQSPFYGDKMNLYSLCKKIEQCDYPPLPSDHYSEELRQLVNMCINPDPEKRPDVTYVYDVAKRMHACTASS

[4] = target: T2, Serine/threonine-protein kinase D2 (Homo sapiens) (UniProt Q9BZL6); assay: Selectivity interaction (ActivX KiNativ screen (kinase selectivity in THP-1 cell lysates)) EUB0000639a PRKD2; type: subcellular; settings: lysate, at 5 µM
T2 sequence (whole entry): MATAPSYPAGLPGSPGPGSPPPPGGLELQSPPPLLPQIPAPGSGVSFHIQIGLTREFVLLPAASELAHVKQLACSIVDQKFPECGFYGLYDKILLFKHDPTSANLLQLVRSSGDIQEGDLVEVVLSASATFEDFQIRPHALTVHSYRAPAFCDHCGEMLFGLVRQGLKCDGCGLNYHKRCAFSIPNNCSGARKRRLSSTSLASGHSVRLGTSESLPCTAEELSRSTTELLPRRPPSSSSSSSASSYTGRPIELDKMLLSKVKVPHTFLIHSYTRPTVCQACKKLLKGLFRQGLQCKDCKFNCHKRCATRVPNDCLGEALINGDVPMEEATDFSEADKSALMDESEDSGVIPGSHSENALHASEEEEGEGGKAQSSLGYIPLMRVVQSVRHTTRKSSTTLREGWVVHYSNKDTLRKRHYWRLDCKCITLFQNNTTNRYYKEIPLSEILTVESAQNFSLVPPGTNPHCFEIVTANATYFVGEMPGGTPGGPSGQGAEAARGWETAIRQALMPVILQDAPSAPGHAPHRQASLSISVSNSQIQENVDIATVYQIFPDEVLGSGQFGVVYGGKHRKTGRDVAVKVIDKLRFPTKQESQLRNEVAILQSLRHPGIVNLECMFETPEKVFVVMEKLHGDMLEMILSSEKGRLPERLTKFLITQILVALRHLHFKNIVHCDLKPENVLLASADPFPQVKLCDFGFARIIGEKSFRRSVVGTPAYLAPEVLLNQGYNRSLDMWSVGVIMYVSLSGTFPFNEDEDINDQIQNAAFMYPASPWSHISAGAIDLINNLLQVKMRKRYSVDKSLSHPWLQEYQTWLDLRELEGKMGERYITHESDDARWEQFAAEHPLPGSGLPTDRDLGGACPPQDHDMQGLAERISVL

[5] = target: Serine/threonine-protein kinase MRCK alpha (Homo sapiens) (UniProt Q5VT25); assay: Selectivity interaction (Kinase panel (Z-LYTE Assay)) EUB0001632a CDC42BPA; settings: at 10 µM
Sequence of Serine/threonine-protein kinase MRCK alpha (Homo sapiens) (Q5VT25 whole entry): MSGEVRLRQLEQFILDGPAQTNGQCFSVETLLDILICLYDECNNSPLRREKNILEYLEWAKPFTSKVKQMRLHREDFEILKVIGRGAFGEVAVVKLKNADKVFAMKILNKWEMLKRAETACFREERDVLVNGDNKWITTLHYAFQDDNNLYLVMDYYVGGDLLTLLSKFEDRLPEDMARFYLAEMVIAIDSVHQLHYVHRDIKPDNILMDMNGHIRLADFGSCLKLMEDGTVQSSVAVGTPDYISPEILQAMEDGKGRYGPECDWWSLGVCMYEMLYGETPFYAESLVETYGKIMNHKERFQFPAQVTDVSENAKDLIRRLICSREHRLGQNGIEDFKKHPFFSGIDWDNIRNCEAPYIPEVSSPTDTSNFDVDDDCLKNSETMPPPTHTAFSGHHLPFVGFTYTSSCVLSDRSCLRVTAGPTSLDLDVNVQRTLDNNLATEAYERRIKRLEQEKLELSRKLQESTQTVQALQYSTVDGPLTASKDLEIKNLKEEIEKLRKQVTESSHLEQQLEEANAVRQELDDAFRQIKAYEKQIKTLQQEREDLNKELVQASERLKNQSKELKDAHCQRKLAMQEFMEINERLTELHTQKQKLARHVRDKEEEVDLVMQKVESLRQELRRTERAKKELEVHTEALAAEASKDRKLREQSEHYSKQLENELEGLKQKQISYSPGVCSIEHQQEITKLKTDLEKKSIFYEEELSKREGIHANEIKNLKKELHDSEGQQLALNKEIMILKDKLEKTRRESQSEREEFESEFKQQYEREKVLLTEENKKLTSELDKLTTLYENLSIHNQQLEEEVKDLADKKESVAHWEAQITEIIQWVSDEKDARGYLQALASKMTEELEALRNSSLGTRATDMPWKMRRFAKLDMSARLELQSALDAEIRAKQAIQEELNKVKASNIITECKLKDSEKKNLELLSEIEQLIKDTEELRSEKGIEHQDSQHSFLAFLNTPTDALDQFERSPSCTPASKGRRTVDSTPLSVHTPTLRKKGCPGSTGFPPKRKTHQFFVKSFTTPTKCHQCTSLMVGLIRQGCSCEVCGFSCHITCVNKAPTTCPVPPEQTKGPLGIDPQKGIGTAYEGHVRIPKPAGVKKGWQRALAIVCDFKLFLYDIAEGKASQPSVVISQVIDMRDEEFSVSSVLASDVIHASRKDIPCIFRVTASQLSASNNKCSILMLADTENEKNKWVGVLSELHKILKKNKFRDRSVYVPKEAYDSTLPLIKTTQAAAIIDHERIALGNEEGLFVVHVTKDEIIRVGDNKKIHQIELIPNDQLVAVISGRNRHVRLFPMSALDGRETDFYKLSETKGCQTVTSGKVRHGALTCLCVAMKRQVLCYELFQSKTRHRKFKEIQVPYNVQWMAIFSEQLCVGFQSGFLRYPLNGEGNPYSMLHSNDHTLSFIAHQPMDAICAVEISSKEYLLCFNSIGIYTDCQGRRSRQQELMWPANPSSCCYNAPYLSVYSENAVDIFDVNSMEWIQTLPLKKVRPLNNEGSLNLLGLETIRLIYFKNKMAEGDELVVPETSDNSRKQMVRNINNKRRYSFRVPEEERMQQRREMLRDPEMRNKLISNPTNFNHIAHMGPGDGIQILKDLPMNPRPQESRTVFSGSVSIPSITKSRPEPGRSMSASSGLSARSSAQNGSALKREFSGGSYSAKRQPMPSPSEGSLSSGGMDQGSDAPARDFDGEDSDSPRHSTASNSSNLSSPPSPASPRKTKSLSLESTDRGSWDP

[6] = target: Glycogen synthase kinase-3 beta (Homo sapiens, UniProt P49841); assay: Selectivity interaction (Rxn Biology Kinase assay) EUB0001632a GSK3B; settings: at 10 µM
Sequence of Glycogen synthase kinase-3 beta (P49841 whole entry, looked up): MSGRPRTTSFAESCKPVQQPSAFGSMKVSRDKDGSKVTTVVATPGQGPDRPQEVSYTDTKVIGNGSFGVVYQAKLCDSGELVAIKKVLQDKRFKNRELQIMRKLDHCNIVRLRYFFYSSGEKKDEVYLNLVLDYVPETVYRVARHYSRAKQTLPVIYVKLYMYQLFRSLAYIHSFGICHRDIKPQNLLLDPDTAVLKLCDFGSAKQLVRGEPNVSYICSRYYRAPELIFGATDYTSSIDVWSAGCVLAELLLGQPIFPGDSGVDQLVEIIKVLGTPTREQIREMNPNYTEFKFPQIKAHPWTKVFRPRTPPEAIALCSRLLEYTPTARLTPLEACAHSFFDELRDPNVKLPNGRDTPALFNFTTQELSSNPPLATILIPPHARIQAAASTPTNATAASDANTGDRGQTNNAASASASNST

[7] = target: Activin receptor type-2B (Homo sapiens) (UniProt Q13705); assay: Selectivity interaction (KinomeScan (DiscoverX)) EUB0001079a ACVR2B; settings: at 1 µM
Sequence of Activin receptor type-2B (Homo sapiens) (Q13705 whole entry): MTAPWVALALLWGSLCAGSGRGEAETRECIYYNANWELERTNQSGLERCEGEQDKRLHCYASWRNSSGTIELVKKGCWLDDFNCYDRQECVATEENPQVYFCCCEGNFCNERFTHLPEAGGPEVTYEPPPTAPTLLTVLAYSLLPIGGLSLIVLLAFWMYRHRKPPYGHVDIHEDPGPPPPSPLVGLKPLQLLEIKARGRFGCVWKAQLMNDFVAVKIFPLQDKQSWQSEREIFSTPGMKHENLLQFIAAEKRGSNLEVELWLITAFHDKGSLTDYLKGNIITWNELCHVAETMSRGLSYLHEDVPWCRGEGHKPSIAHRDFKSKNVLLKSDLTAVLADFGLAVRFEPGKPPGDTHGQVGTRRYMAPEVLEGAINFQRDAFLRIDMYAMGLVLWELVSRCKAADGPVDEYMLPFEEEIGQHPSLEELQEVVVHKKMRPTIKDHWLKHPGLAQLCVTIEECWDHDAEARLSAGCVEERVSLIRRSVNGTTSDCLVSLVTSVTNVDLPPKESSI

[8] = target: Tyrosine-protein kinase Blk (Homo sapiens) (UniProt P51451); assay: Selectivity interaction (KinomeScan (DiscoverX)) EUB0001079a BLK; settings: at 1 µM
Sequence of Tyrosine-protein kinase Blk (Homo sapiens) (P51451 2-505 limits assumed): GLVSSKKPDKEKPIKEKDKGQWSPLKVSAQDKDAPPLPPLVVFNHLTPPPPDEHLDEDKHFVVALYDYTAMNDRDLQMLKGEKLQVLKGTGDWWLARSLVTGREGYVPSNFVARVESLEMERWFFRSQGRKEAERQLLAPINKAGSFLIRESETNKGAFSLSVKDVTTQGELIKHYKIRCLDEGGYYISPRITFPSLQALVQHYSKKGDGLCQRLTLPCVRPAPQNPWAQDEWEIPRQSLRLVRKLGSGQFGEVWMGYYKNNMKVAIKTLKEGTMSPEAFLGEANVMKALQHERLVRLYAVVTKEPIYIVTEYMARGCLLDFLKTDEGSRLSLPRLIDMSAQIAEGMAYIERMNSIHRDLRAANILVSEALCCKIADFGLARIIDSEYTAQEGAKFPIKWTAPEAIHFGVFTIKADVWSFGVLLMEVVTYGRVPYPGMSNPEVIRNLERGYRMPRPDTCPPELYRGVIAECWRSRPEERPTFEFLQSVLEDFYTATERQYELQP

[9] = target: Bromodomain-containing protein 7 (Homo sapiens) (UniProt Q9NPI1); assay: Selectivity interaction (Human bromodomain panel (DSF assay)) EUB0000233b BRD7
[10] = target: Non-receptor tyrosine-protein kinase TYK2 (Homo sapiens, UniProt P29597); assay: Selectivity interaction (KinomeScan (DiscoverX)) EUB0000618a TYK2; settings: at 10 µM
Sequence of Non-receptor tyrosine-protein kinase TYK2 (P29597 whole entry): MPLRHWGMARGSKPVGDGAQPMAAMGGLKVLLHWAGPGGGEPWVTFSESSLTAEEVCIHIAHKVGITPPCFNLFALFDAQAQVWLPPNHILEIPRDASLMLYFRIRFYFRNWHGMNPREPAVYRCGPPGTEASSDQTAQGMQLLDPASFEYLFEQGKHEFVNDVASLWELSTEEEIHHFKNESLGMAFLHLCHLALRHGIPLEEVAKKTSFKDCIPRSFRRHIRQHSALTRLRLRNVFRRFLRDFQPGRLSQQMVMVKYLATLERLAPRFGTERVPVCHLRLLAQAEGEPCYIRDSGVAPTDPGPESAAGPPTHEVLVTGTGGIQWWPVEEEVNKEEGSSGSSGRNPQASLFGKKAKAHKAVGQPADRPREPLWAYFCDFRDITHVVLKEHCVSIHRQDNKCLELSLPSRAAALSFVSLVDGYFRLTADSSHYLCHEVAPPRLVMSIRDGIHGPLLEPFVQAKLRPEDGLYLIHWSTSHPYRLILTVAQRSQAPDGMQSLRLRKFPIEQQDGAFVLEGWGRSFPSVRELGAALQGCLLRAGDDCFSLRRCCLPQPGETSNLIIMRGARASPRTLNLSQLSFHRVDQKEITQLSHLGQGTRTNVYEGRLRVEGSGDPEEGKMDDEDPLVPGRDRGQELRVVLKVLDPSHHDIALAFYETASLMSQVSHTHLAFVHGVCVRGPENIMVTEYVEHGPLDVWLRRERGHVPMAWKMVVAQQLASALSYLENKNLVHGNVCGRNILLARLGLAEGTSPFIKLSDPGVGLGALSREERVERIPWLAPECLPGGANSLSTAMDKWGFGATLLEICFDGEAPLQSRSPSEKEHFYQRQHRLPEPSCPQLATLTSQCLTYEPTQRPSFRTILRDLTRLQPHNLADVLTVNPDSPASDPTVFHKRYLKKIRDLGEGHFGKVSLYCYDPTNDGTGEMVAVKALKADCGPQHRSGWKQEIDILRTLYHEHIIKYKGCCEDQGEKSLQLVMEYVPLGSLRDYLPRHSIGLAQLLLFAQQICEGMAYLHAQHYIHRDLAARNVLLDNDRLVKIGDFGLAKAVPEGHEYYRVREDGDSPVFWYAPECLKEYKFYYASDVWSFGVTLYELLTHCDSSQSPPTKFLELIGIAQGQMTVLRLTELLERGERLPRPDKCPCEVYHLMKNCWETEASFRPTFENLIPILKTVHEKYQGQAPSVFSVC

[11] = target: Serine/threonine-protein kinase Nek6 (Homo sapiens) (UniProt Q9HC98); assay: Selectivity interaction (KinomeScan (DiscoverX)) EUB0000618a NEK6; settings: at 10 µM
Sequence of Serine/threonine-protein kinase Nek6 (Homo sapiens) (Q9HC98 whole entry): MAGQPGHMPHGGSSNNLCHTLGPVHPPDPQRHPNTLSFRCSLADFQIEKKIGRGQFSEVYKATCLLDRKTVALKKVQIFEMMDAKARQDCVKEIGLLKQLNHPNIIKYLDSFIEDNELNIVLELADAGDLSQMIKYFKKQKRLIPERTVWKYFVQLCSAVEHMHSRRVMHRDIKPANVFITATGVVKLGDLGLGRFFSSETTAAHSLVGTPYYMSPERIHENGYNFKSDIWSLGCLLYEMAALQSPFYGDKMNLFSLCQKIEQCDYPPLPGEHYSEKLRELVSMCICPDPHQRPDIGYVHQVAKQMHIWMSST

[12] = target: T3, Serine/threonine-protein kinase MAK (Homo sapiens) (UniProt P20794); assay: Selectivity interaction (KinomeScan (DiscoverX)) EUB0000607a MAK; settings: at 10 µM
T3 sequence (whole entry): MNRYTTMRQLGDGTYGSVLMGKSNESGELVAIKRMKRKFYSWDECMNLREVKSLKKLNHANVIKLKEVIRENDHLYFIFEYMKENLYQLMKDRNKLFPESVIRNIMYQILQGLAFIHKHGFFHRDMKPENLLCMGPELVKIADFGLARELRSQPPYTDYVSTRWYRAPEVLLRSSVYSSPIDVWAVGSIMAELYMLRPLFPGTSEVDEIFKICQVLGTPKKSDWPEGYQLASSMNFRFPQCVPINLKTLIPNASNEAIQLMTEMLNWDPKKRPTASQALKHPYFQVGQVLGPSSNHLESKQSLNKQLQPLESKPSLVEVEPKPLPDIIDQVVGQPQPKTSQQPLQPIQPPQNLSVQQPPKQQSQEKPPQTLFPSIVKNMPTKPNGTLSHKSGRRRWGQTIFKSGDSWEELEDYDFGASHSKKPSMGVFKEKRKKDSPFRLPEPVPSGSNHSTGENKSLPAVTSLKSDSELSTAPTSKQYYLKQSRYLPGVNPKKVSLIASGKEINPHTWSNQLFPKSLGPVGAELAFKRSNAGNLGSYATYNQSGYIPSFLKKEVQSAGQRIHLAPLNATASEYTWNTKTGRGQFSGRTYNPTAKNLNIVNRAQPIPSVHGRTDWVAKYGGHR

Compound: Cc1cc([C@@H](C)Nc2ccccc2C(=O)O)c2nc(N3CCOCC3)cc(=O)n2c1 [AZD-6482]
% of control [1]: 100%

Compound: COc1cc(Nc2nc(C)cc(-c3cnn4nc(OC)ccc34)n2)cc(C(F)(F)F)c1
% of control [2]: 90%

% of inhibition [3]: -2.2% | % of inhibition [4]: 8.9%
Compound: CC[C@@H]1[C@H](F)C(=O)N[C@@H]1COc1nccc2cc(C(N)=O)c(OC)cc12 [ZIMLOVISERTIB]

% of control [5]: -5.27% | % of inhibition [6]: 96.5%
Compound: Cn1cc(-n2cnc3c(NCc4nc5cc(Cl)c(Cl)cc5[nH]4)nc(N4CCOCC4)nc32)cn1

Compound: Nc1cnc(N2CCc3cc(S(=O)(=O)Nc4c(F)cc(Cl)cc4F)cc(N4CCCC4=O)c32)nc1 [TP-020n]
% of control [7]: 80% | % of control [8]: 100%

dTM [9]: 4 K
Compound: CN(C)CCCOc1ccc(-c2cc(NCCCn3cccn3)nc(S(C)(=O)=O)n2)cc1

Compound: O[C@H]1CC[C@H](Nc2ncc3nc(Nc4c(F)cc(F)cc4F)n([C@H]4CCOC4)c3n2)CC1
% of control [10]: 61% | % of control [11]: 100%

Compound: CNC(=O)Nc1ccc(-c2nc(N3CC4CCC(C3)O4)c3cnn(C4CCC5(CC4)OCCO5)c3n2)cc1
% of control [12]: 100%
